Data reported in the METLIN SMRT retention time set (Domingo-Almenara et al. 2019).

Assay: gradient 5% acetonitrile 3 min, to 50% in 2 min, to 85% in 15 min, held 3 min, 100 µL/min
Conditions: column: Zorbax Extend-C18 2.1 x 50 mm; eluents: water / acetonitrile, 0.1% formic acid
Outline: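 Pure standards were analyzed in mixtures of ~100 molecules using HPLC coupled to a quadrupole time-of-flight mass spectrometer, in both positive and negative ionization mode. Separation used a Zorbax Extend-C18 column (2.1 × 50 mm, 1.8 μm) at 100 μL/min, with water and acetonitrile each containing 0.1% formic acid. Dead and dwell volumes were 40 μL and 900 μL, and data were collected over 3 months. Retention time was read from computationally picked adduct peaks, each inspected manually.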

| RP-LC retention time [s] | Structure (SMILES) |
| --- | --- |
| 730 | CCN1CCN(C(=O)CC2COc3ccc(Cl)cc3N2Cc2ccccc2)CC1 (centres undefined) |
| 788 | CCN(CC)S(=O)(=O)c1ccc2c(c1)N(CC(=O)NCCOC)C(=O)C1CCCCN21 (centres undefined) |
| 931 | Cc1ccccc1Cn1cccc1CNC(=O)Nc1ccc2c(c1)OCO2 |
| 790 | CCC(=O)N1CCc2c(sc3ncnc(NCc4ccccc4)c23)C1 |
| 840 | O=C1[C@H]2CN(Cc3cc(Cl)ccc3F)C[C@H]2C(=O)N1CCc1ccccc1 |
| 885 | Cc1nc(Cn2cccc2C(=O)N2CCc3ccccc32)no1 |
| 900 | Cc1ccc(CNC(=O)Cn2c(=O)c(S(=O)(=O)c3ccccc3)cc3ccccc32)cc1 |
| 661 | O=C1[C@H]2CN(Cc3ccccc3Cl)C[C@H]2C(=O)N1CCN1CCc2ccccc2C1 |
| 830 | CCOc1cc(-c2cccc(Cl)c2)nc2ccc(NC(=O)c3ccco3)cc12 |
| 850 | Cc1cccc(N(C)C(=O)Cn2c(N3CCc4ccccc4C3)nc(C)cc2=O)c1 |
| 679 | Cc1cc(C)c(NC(=O)Cn2nc3c4cccc(C)c4ncn3c2=O)c(C)c1 |
| 707 | O=C(C1=CCN(Cc2ccccc2)CC1)N1CCN(c2cccc(Cl)c2)CC1 |
| 761 | COc1ccc(CC(=O)N2CCC3(C2)C(=O)Nc2ccccc23)cc1Cl (centres undefined) |
| 774 | CCc1c(C2CCN(C(=O)c3cc4ccccc4[nH]3)CC2)noc1N |
| 982 | COc1ccc(-c2noc(CCCC(=O)Nc3nc(-c4ccccc4)cs3)n2)cc1OC |
| 693 | COC[C@@H]1CN(S(=O)(=O)Cc2ccccc2)C[C@H]1c1ccccn1 |
| 721 | Cc1nn(CC(=O)NCc2ccc(F)cc2Cl)c(=O)c2noc(C)c12 |
| 780 | CCOCCCNC(=O)C1CCN(C2=NS(=O)(=O)C(c3ccc(Cl)cc3)=C2C)CC1 |
| 787 | CCc1nnc(-c2cccn2CC(=O)Nc2cc(OC)cc(OC)c2)o1 |
| 866 | O=C(Cn1c(=O)oc2ccccc21)Nc1nc(-c2nc3ccccc3s2)cs1 |
| 795 | CCn1ccc(C(=O)N2CCCC2c2ccc(OC)cc2)n1 (centres undefined) |
| 723 | COc1ccc(C(=O)N2C[C@@H]3C[C@H]2C[C@@H]3NS(=O)(=O)c2ccccc2)cc1OC |
| 957 | Cc1nc(-c2noc(-c3cccc(F)c3)n2)cn1CC(=O)Nc1cccc(Cl)c1 |
| 668 | CC(C)Cn1c(=O)c(N2CCN(C(=O)NCCc3ccccc3)CC2)nc2ccncc21 |
| 621 | CCN1CCN(CCCNC(=O)c2nc(-c3oc4ccccc4c3C)no2)CC1 |
| 893 | Cc1ccc(-n2ccc(=O)c(-c3nc(-c4ccc5c(c4)OCO5)no3)n2)cc1 |
| 675 | CC(O)(CNC(=O)c1cnc2ccccc2n1)c1ccco1 (centres undefined) |
| 792 | Cn1ncn2cc(S(=O)(=O)NCc3ccccc3Cl)cc2c1=O |
| 721 | CCN(CC)C(=O)Cn1ccn2nc(-c3ccccc3)c(CO)c2c1=O |

Continued, compound first:

| Structure (SMILES) | RP-LC retention time [s] |
| --- | --- |
| Cn1ncc2c(N3CCN(c4ccc(F)cc4)CC3)ncnc21 | 802 |
| CC(=O)N1CCCSc2ccc(S(=O)(=O)N3CCC(CN4CCc5ccccc5C4)CC3)cc21 | 671 |
| O=C(NCc1csc(C2CCCN(C(=O)c3ccccc3)C2)n1)C1CCC1 (centres undefined) | 712 |
| CS(=O)(=O)N1CCCc2ccc(NC(=O)c3ccc4nsnc4c3)cc21 | 786 |
| COc1ccc(NC(=O)N2CC(N(C(=O)NC(C)C)C3CCOCC3)C2)cc1OC | 598 |
| COc1ccc(NC(=O)C2CCCN(c3nccnc3Sc3ccccc3)C2)cc1 (centres undefined) | 1030 |
| CCCn1cc(C(=O)Nc2ccc(F)cc2C)c2cccnc21 | 882 |
| O=C(CN1CCN(Cc2ccccc2F)C1=O)N1CCN(C2CCCCC2)CC1 | 613 |
| CCN1C(=O)C(CC(=O)NC(C)C)Sc2ncccc21 (centres undefined) | 655 |
| Cc1ccc(NC(=O)C2CC(=O)N(c3cccc(NC(=O)C(C)C)c3)C2)cc1Cl (centres undefined) | 872 |
| Clc1cccc(-c2nc3ccc(Cl)cn3c2Nc2ccc3c(c2)OCCO3)c1 | 939 |
| COC(=O)C1=CN(c2cccc(C#N)c2)c2ccc(F)cc2S1(=O)=O | 787 |
| Cc1nc(-c2cc(S(=O)(=O)NCCN3CCC(C)CC3)c(C)s2)sc1C | 718 |
| Cc1ccc(CNC(=O)c2ccc(-c3cncnc3)nc2)o1 | 678 |
| Cc1ccc(CNS(=O)(=O)c2cc(-c3[nH]ncc3C(=O)N3CCCC3)oc2C)cc1C | 768 |
| Cc1ccc2ncn(C3CCN(S(=O)(=O)c4cccc(F)c4)CC3)c(=O)c2c1 | 909 |
| COc1ccccc1NC(=O)N1CC(c2nc(C)no2)C2(CCOCC2)C1 (centres undefined) | 676 |
| CCn1cc(C(=O)Nc2cccc(C)c2)c2cccnc21 | 857 |
| Cc1ccc(NC(=O)CCC2CCN(c3cc(NC4CC4)ncn3)CC2)cc1 | 692 |
| Cc1ccc(C(=O)N2CCC3(CC2)N=C(c2ccc(Cl)cc2)NO3)cc1 | 895 |

| Structure (SMILES) | RP-LC retention time [s] |
| --- | --- |
| O=C(NC1CCCCC1)C1CCN(C(=O)c2ncn3c2COC(c2ccc(Cl)cc2)C3)CC1 (centres undefined) | 844 |
| CC(C)CCNC(=O)C1CCN(c2nc3ccc(-c4cncnc4)nc3s2)CC1 | 824 |
| CC(=O)N1CCc2c(c(CNC(=O)c3cncn3C)nn2C)C1 | 558 |
| CC1Oc2ccc(S(=O)(=O)N3CCC(C(=O)NC4CCCCCCC4)CC3)cc2NC1=O (centres undefined) | 907 |
| Cc1cccc(NC(=O)CSc2ccc(N3CCCC(C(=O)NC4CC4)C3)nn2)c1 (centres undefined) | 648 |
| O=C(Nc1ccc(-c2cn3cccnc3n2)cc1)c1cccc(Cl)c1 | 664 |
| COCCn1cc(CC(=O)NC(C)C)c2cccnc21 | 601 |
| COc1cc(C(=O)N2CCN(c3cc(=O)n(C)c(=O)n3C)CC2)cc(OC)c1OC | 630 |
| CCn1cc(-c2ccc(F)cc2)cc1C(=O)N1CCC2(CC1)OCCO2 | 963 |
| COC(=O)c1ncn2c1C(=O)N(Cc1ccc(C)cc1)C(C)(C(=O)NC1CCCC1)C2 (centres undefined) | 766 |
| Cc1c(CCC(=O)NCC(=O)N[C@@H](C(=O)O)C(C)C)c(=O)oc2c(C)c(O)ccc12 | 636 |
| CCC1CCCCN1C(=O)c1cnc2nc(C)ccc2c1Nc1ccc(F)cc1C (centres undefined) | 703 |
| c1ccc(N2CCN(c3ncnc4scc(-c5cccs5)c34)CC2)cc1 | 1250 |
| O=C(Nc1ccc(N2CCCN(C(=O)C3CC3)CC2)cc1)c1ccc(=O)[nH]c1 | 595 |
| O=C(NCCn1nnc2cc(C(=O)N3CCCCC3)ccc21)NC1CCCC1 | 661 |
| COC(=O)c1ccc(NC(=O)C(=O)NCc2ccccn2)cc1 | 592 |
| COCCN(Cc1cccs1)C(=O)CN1C[C@H]2C[C@H](C1)[C@H]1CCCC(=O)N1C2 | 556 |
| Cn1c(C(=O)Nc2ccc(N3CCOCC3)cc2)cc2c1CCN(Cc1ccccc1)C2 | 618 |
| COCCOCc1nc(C2CCCN2C(=O)c2sccc2C)no1 (centres undefined) | 716 |
| Cc1ccc(S(=O)(=O)N2CCC3(CC2)NCCN=C3NCc2ccccc2F)cc1 | 709 |

| Structure (SMILES) | RP-LC retention time [s] |
| --- | --- |
| COc1ccc(C(C)NC(=O)c2cn3nc(Cl)ccc3n2)cc1OC (centres undefined) | 755 |
| CCn1c(=O)c(C)nc2cc(-c3noc(-c4sccc4C)n3)ccc21 | 1080 |
| COc1cc(OC)c(NC(=O)C2CCN(C(=O)c3cc(-c4ccncc4)n[nH]3)CC2)cc1Cl | 611 |
| O=C(CN1CCN(C(=O)c2sc3ncccc3c2-n2cccc2)CC1)N1CCCC1 | 607 |
| Cc1ccc(C)c(S(=O)(=O)N2CC(c3noc(C)n3)C3(CCOCC3)C2)c1 (centres undefined) | 929 |
| COCCn1nc2n(c1=O)CCN(C(=O)c1ccco1)CC2 | 585 |
| CCS(=O)(=O)N1CC(=O)N(c2ccc(F)cc2C)C(C)(C(=O)NC2CCCCCC2)C1 (centres undefined) | 925 |
| CCN1C(=O)COc2ccc(-c3noc(Cc4ccc(OC)cc4)n3)cc21 | 1000 |
| O=C(NC1CCCC1)N1CCC(OCc2ccccc2)C1 (centres undefined) | 834 |
| Cc1ccc(S(=O)(=O)N2CCCC2c2nc(-c3cccc(C(F)(F)F)c3)no2)cc1 (centres undefined) | 1210 |
| O=[N+]([O-])c1ccc(-c2nc(NC3CCCCC3)c3ccccc3n2)cc1 | 921 |
| Cc1nc(-c2ccc(N3CCN(C(=O)COc4ccc(F)cc4)CC3)nc2)sc1C | 880 |
| COC(=O)c1cc(S(=O)(=O)N2CCCC2C(=O)N2CCN(c3cccc(Cl)c3)CC2)cn1C (centres undefined) | 929 |
| CN1C(=O)Cc2cc(NC(=O)c3ccno3)ccc21 | 586 |
| O=C(Nc1ccccc1F)N1C[C@H]2C[C@@H](C1)c1cccc(=O)n1C2 | 610 |
| CN(C)CC1CN(C(=O)c2ccc(F)c(F)c2)CC12CCOCC2 (centres undefined) | 578 |
| O=C(Cc1ccc(Br)cc1)Nc1cc(-c2ccsc2)no1 | 983 |
| C=CCN1C[C@@H](C)N([C@H](c2ccc(C(=O)N(CC)CC)cc2)c2cccc(OC)c2)C[C@@H]1C | 770 |
| Cc1cc(NS(=O)(=O)c2c(C)sc(C)c2-c2n[nH]c(C)c2C)ccc1Br | 1180 |
| O=C(c1ccsc1)N1CCCN(c2cc(-c3ccc4c(c3)OCO4)[nH]n2)CC1 | 616 |
